Where “and” joins values, the source holds several entries; their conditions need not be identical. Identical values can stand only once.
Tested on: S. Typhimurium GFP reporter counter-screen, fluorescence, 4 h
Experiment: nmpC-GFP reporter counter-screen in S. Typhimurium, dose response, counter-screen for PhoP regulon inhibitor project, Salmonella Typhimurium, GFP fluorescence (AID 2401);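 further: S. typhimurium with Mg-insensitive nmpC-GFP reporter grown at 10 µM Mg2+; drop in reporter fluorescence reflects general culture growth inhibition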

| SMILES | IC50 |
| --- | --- |
| Cc1ccc(C(C[N+](=O)[O-])c2c(C)cc3ccccn23)cc1 (configuration not stated) | 65 µM |
| CCCCCCCCCCCCCCCC[n+]1cccc2ccccc21 | 19.1 µM |
| Nc1ncn([C@@H]2O[C@H](CO)[C@@H](O)[C@H]2O)c(=O)n1 | 33.6 µM |
| CN1CCN(c2c(F)cc3c(=O)c(C(=O)O)cn4c3c2SCC4)CC1 | 8.06 µM and 8.09 µM |
| Cc1cccc(Nc2nc(NCc3ccco3)c3ccccc3n2)c1 | 54.6 µM |
| Cc1nc2c(=O)n(C)c(=O)nc-2n(C)n1 | 1.09 µM |
| CC1CCCC(C)N1/N=C/c1c[nH]c2ccc(Br)cc12 (configuration not stated) | 88.9 µM |
| C=CC1=C(C(=O)O)N2C(=O)[C@@H](NC(=O)/C(=N\O)c3csc(N)n3)[C@H]2SC1 (stereo in doubt) | 33.3 µM |
| COc1cnc(-c2ccccn2)[nH]c1=O | 35.3 µM |
| C=C1c2c(Cl)ccc(O)c2C(O)=C2C(=O)[C@]3(O)C(O)=C(C(N)=O)C(=O)[C@@H](N(C)C)[C@@H]3[C@@H](O)C12 (some centres not stated) | 1.28 µM |
| Oc1c(I)cc(Cl)c2cccnc12 | 8.56 µM |
| C#CCOCCOCCOCCNc1nc(N2CCN(C(=O)CCCCCCCCCCNC(=O)[C@H]([C@@H](C)CC)n3cc(CCCCN=C(N)N)nn3)CC2)nc(N2CCN(C(=O)CCCCCCCCCCNC(=O)[C@H]([C@@H](C)CC)n3cc(CCCCN=C(N)N)nn3)CC2)n1 | 43.4 µM |
| O=[N+]([O-])c1cc(Cl)c2cccnc2c1O | 1.62 µM |
| CN(C)CCCN(C(=O)CCc1ccccc1)c1nc2ccc(Cl)cc2s1 | 39 µM |
| O=[N+]([O-])c1ccc(-c2ccn[nH]2)o1 | 39.8 µM |
| Nc1nonc1-n1nnc(C(=O)N/N=C/c2cc(Br)ccc2O)c1CSC1=NCCS1 | 19.3 µM |
| Cc1conc1NC(c1cccs1)c1ccc2cccnc2c1O (configuration not stated) | 25.1 µM |
| Cc1cc(C)c2ccc(N)nc2c1O | 35.7 µM |
| CCOc1ccc(NC(=O)c2ccc(NC(=O)c3cn4c5c(c(N6CCN(C)CC6)c(F)cc5c3=O)OCC4C)cc2)cc1 (configuration not stated) | 6.51 µM |
| O=C(C[n+]1cc(-c2ccc(Cl)cc2)n2c1CCC2)Nc1nc(-c2ccccc2)cs1 | 84 µM |
| Cc1ccc(C(=O)N/N=C/c2cc(Br)ccc2O)cn1 | 55.7 µM |
| Cc1ccc(S(=O)(=O)Nc2cc(Cl)c(O)c3ncccc23)cc1 | 29 µM |

| SMILES | IC50 |
| --- | --- |
| O=C(C[n+]1cc(-c2ccc(Cl)c(Cl)c2)n2c1CCC2)N1c2ccccc2Sc2ccccc21 | 49 µM |
| CN(C)c1ccc(/C=C/c2ccc3ccccc3[n+]2C)cc1 | 19.8 µM |
| COC12C(COC(N)=O)C3=C(C(=O)C(C)=C(N)C3=O)N1CC1C2N1C (configuration not stated) | 77.2 µM |
| CN1CCN(c2cc3c(cc2F)c(=O)c(C(=O)O)cn3CCF)CC1 | 0.93 µM |
| CCN1/C(=C/C(C)=C/c2sc3ccccc3[n+]2CC)Sc2ccccc21 | 12.9 µM |
| CCOc1ccc(Nc2nc(N)c3ccccc3n2)cc1 | 86.2 µM |
| CCOC(=O)N1CCN(C(=O)c2cn(CC)c3cc(N4CCN(C)CC4)c(F)cc3c2=O)CC1 | 12 µM |
| CCN1/C(=C/C=C/c2sc3ccccc3[n+]2CC)Sc2ccccc21 | 32.9 µM |
| O=CN/N=C/c1c(O)ccc2ccccc12 | 37.2 µM |
| Cc1[nH]n(-c2ccccc2)c(=O)c1/C=N/Nc1nncc(-c2ccccc2)n1 | 19.1 µM |
| Nc1cccc2nc3ccccc3cc12 | 26.7 µM |
| C=C1c2cccc(O)c2C(O)=C2C(=O)[C@]3(O)C(O)=C(C(N)=O)C(=O)[C@@H](N(C)C)[C@@H]3[C@@H](O)[C@H]12 | 0.67 µM |
| Oc1c(CN2CCc3ccccc3C2)cc(Cl)c2cccnc12 | 17.4 µM |
| CCCCCCNC(=O)c1cn(CC)c2cc(N3CCN(C)CC3)c(F)cc2c1=O | 38.9 µM |
| Cc1ccccc1Nc1cc(C)c2c(O)cccc2n1 | 41.2 µM |
| CCn1cc(C(=O)NCCCN(C)C)c(=O)c2cc(F)c(N3CCN(C)CC3)cc21 | 86.9 µM |
| CC(C)(C)CC(C)(C)c1ccc(OCCOCC[N+](C)(C)Cc2ccccc2)cc1 | 32.8 µM |
| COC(=O)C1C(O)C(C)C(O)C(C)/C=C\C=C(/C)C(=O)Nc2c(C)c(OC(C)=O)c3c(c2O)C(=O)C(C)=C2OCOC(=C23)/C(C)=C/C(C)(O)C(O)C(C)C1O (configuration not stated) | 22.2 µM |
| Oc1ccc(CNc2ccccc2F)c2cccnc12 | 45.7 µM |
| CC(=O)NC(c1ccc(Cl)cc1Cl)c1ccc2cccnc2c1O (configuration not stated) | 48.8 µM |
| Fc1ccc(Nc2nc(NCc3ccco3)c3ccccc3n2)cc1 | 28.2 µM |
| COc1cccc(Nc2nc(NCC3CCCO3)c3ccccc3n2)c1 (configuration not stated) | 87.5 µM |

| SMILES | IC50 |
| --- | --- |
| CCN1CCN(C(c2ccc(C(F)(F)F)cc2)c2ccc3cccnc3c2O)CC1 (configuration not stated) | 39.4 µM |
| COc1ccc(CN2C(=O)Cc3c2nc(N)c2c(N)nc(N4CCCCC4)c(C#N)c32)cc1 | 120 µM |
| CC(C)(C)/C(O)=C/c1nc2cc(Cl)ccc2oc1=O | 65.1 µM |
| O=C(N/N=C/c1c[nH]c2ccccc12)c1cc(-c2ccc3ccccc3c2)n[nH]1 | 47.3 µM |
| CO/N=C(/C(=O)N[C@@H]1C(=O)N2C(C(=O)O)=CCS[C@H]12)c1cnc(N)s1 | 18.4 µM |
| CCN1/C(=C/C=C/C=C/c2sc3ccccc3[n+]2CC)Sc2ccccc21 | 17.8 µM |
| CO[C@H]1/C=C/O[C@@]2(C)Oc3c(C)c(O)c4c(O)c(c(C=NN5CCN(C)CC5)c(O)c4c3C2=O)NC(=O)/C(C)=C\C=C\[C@H](C)[C@H](O)[C@@H](C)[C@@H](O)[C@@H](C)[C@H](OC(C)=O)[C@@H]1C | 6.41 µM |
| CCCCCCCCCC[N+](C)(C)CC/C=C1/c2ccccc2Sc2ccc(Cl)cc21 | 18.9 µM |
| O=C(NC(CO)Cc1ccc([N+](=O)[O-])cc1)C(Cl)Cl (configuration not stated) | 12.7 µM |
| Fc1ccc(CCNCc2ccc(Cl)c(Cl)c2)cc1 | 80.6 µM |
| CCn1cc(C(=O)O)c(=O)c2cc(F)c(N3CCN(C(=S)NC(=O)c4ccccc4C)CC3)cc21 | 27.6 µM |
| c1cnc2c(c1)ccc1cccnc12 | 24.5 µM |
| Oc1ccc(CN2CCN(Cc3ccccc3)CC2)c2cccnc12 | 35 µM |
| O=c1c2c(-c3ccccc3)csc2nc2c3ccccc3c(NCCN3CCOCC3)nn12 | 147 µM |
| CCn1cc(C(=O)O)c(=O)c2cc(F)c(N3CCN(C(=S)NC(=O)c4c(OC)cccc4OC)CC3)cc21 | 54.2 µM |
| CC1CCC(C(C)C)C(OC(=O)Cn2c(COc3ccccc3)[n+](C)c3ccccc32)C1 (configuration not stated) | 40.4 µM |
| CCn1cc(C(=O)NCCO)c(=O)c2cc(F)c(N3CCN(C)CC3)cc21 | 42.8 µM |
| CC[C@@H](C)[C@H](CNC)NC[C@@H](Cc1cccc2ccccc12)NCCc1cccc(C(F)(F)F)c1 | 32.3 µM |
| O=C(C[n+]1cc(-c2ccc(Cl)cc2)n2c1CCC2)Nc1nc(-c2ccc(F)cc2)cs1 | 38.3 µM |
| CCc1ccc(NC(=O)C[n+]2cc(-c3ccc(C)cc3)n3c2CCC3)cc1 | 85.9 µM |
| Cc1ccc(S(=O)(=O)NC2=NCN(CCOC(=O)c3ccc([N+](=O)[O-])cc3)CN2)cc1 | 145 µM |
| CCn1cc(C(=O)NCCCO)c(=O)c2cc(F)c(N3CCN(C)CC3)cc21 | 46.8 µM |

| SMILES | IC50 |
| --- | --- |
| O=c1cc2oc3cc(O)c(O)cc3c(-c3ccccc3[N+](=O)[O-])c-2cc1O | 28.5 µM |
| COc1ccc2[nH]c3c(C)c4ccncc4c(C)c3c2c1 | 20.5 µM |
| CCCCCCCCCCCCCCCC[N+](C)(C)CC | 25.4 µM |
| Cc1cc(SCC(=O)N/N=C/c2ccc(O)c(O)c2O)c(C)cc1Br | 30.6 µM |
| Cc1cc2nc3ccc(=[N+](C)C)cc-3sc2cc1N | 36.5 µM |
| COc1ccc(/C=N/Nc2cc(C)nc3ccccc23)cc1 | 51.7 µM |
| CCCCCCCCCCCCCCCC[n+]1cccc(C(=O)N(CC)CC)c1 | 20.1 µM |
| CC(=O)NC(c1cccs1)c1cc([N+](=O)[O-])c2cccnc2c1O (configuration not stated) | 30.8 µM |
| Nc1cc(Cl)c2nonc2c1[N+](=O)[O-] | 54.1 µM |
| Clc1cc(Br)ccc1OCCCNCc1ccccc1 | 75.6 µM |
| CC(C)NC1=C(Cl)C(=O)c2ccccc2C1=O | 38.3 µM |
| COc1cc(C)c(Cc2cnc(N)nc2N)cc1OC | 2.03 µM |
| CN(C)c1ccc(O)c2c1CC1CC3C(N(C)C)C(=O)C(C(N)=O)=C(O)[C@@]3(O)C(=O)C1=C2O (some centres not stated) | 3.97 µM |
| COc1ccc(Nc2cc(C)nc(NCc3ccccc3)n2)cc1 | 111 µM |
| CN1CCc2c(sc(NC(=O)c3ccc([N+](=O)[O-])o3)c2C(N)=O)C1 | 47.7 µM |
| N=c1c2c(n(Cc3ccc(Br)cc3)c3c1CCC3)CCCC2 | 132 µM |
| Oc1cccc(Nc2nc(NCC3CCCO3)c3ccccc3n2)c1 (configuration not stated) | 99.8 µM |
| C(=N\Nc1ccccn1)/c1cccnc1 | 21.5 µM |
| O=C(N/N=C/c1cccc([N+](=O)[O-])c1O)c1cccs1 | 16.8 µM |
| CC[n+]1c(/C=C/c2ccc(N(C)C)cc2)ccc2ccccc21 | 37.3 µM |
| CCOC(=O)Cc1csc(NC(=O)NC2(C(F)(F)F)Oc3cc(Cl)c(Cl)cc3O2)n1 | 74.6 µM |
| COC(=O)C1C(O)C(C)C(O)C(C)(O)/C=C\C=C(/C)C(=O)Nc2c(C)c(OC(C)=O)c3c(c2O)C(=O)C(C)=C2OCOC(=C23)/C(C)=C/C(C)(O)C(O)C(C)C1O (configuration not stated) | 12.6 µM |

| SMILES | IC50 |
| --- | --- |
| Nc1nc(N2CCN(C/C=C/c3ccccc3)CC2)nc2ccccc12 | 107 µM |
| NC(N)=NN=C1CCCCCCCCCCC1 | 77.3 µM |
| O=C(C[n+]1cccc(CNC(=O)c2ccc(OC(F)F)cc2)c1)Nc1ccc(SC(F)F)cc1 | 78.4 µM |
| O=[N+]([O-])c1cc(CN2CCCC2)c2cccnc2c1O | 40.6 µM |
| O=[N+]([O-])c1ccc(Sc2nc3ccccc3o2)c([N+](=O)[O-])c1 | 103 µM |
| Cc1ccc(Nc2cc(C)c3c(O)cccc3n2)cc1C | 75.3 µM |
| O=C(c1cccs1)c1no[n+]([O-])c1C(=O)c1cccs1 | 39.1 µM |
| Cc1cc(C(C)(C)CC(C)(C)C)ccc1OCCOCC[N+](C)(C)Cc1ccccc1 | 26.9 µM |
| Oc1c(C(Nc2cccc(C(F)(F)F)c2)c2cccnc2)ccc2cccnc12 (configuration not stated) | 39.3 µM |
| Cc1[nH]n(-c2ccccc2)c(=O)c1C(C[N+](=O)[O-])c1ccc(F)cc1 (configuration not stated) | 78.8 µM |
| CCCCCCCCCCCCCCCC[N+](C)(C)CCN(Cc1ccc(OC)cc1)c1ncccn1 | 20.2 µM |
| Cc1nc(N)nc(N)c1/C=C/C(C)(C)c1ccc(Cl)cc1 | 8.11 µM |
| Cc1onc(-c2ccccc2)c1C(=O)NC(=S)NNC(=O)c1ccc(O)cc1O | 119 µM |
| Cc1ccc(-c2csc(NC(=O)C[n+]3cc(-c4ccc(C)cc4)n4c3CCC4)n2)cc1 | 38.4 µM |
| C=CS(=O)(=O)c1ccc(Oc2ccc(S(=O)(=O)C=C)cc2)cc1 | 111 µM |
| CCn1cc(C(=O)O)c(=O)c2cc(F)c(N3CCN(C(=S)NC(=O)c4ccc(F)cc4)CC3)cc21 | 104 µM |
| CCCCCCCCCCCCCCCC[n+]1ccc(/C=N/O)cc1 | 28.7 µM |
| O=C(N/N=C/c1cc([N+](=O)[O-])ccc1O)C1CC1 | 34 µM |
| Nc1nnc(-c2cccc(Cl)c2Cl)c(N)n1 | 60.5 µM |

Source: PubChem BioAssay AID2401 (Southern Research Specialized Biocontainment Screening …, 2010)
